Data reported in US4062862A, “5-Benzyl-2-oxazolidone derivatives and a process for producing the same” (Nippon Chemiphar Co., Ltd., priority 1975, dated 1977).

Legend:
[1] = test system: mice; assay: Muscular relaxing effect, Righting Reflex Test (R.r), oral, mice; type: in vivo, dd Male mice; conditions: Mus musculus; Table 1; oral; mice; maximum response 15-180 min; Litchfield Wilcoxon
Procedure: (§1) dd Male mice weighing 18 to 22 g, one group consisting of 10 animals, were orally given the compounds (I) to (V) as indicated below suspended in 0.2% carboxymethylcellulose solution in a dose of 0.25ml/10g-body weight. Mephenesin was used as active placebo.

[2] = test system: mice; assay: Muscular relaxing effect, Traction Test (T.T), oral, mice; type: in vivo, dd Male mice; conditions: Mus musculus; Table 1; oral; mice; maximum response 15-180 min; Litchfield Wilcoxon
Procedure: as §1

[3] = test system: carrageenan-induced edema in rats; assay: Antiinflammatory effect on carrageenan-induced edema; type: in vivo, Wistar male rats; conditions: Table 5, 200 mg/kg oral
Procedure: […] One hour after the administration of the test compounds, the hind paw was given a subcutaneous injection of 0.05ml of 0.5% carrageenan saline solution, and volume of the hind paw was measured at 1, 2, 3, 4, 5 and 6 hours after the injection of carrageenan by a volume differential meter. Inhibitory percent was calculated based on the swelling in the control. Phenybutazone was used as active placebo.

[4] = test system: acetic acid-induced writhing syndrome in mice; assay: Analgetic effect, Acetic Acid-Induced Writhing Method; type: in vivo, dd Male mice; conditions: 100 mg/kg oral, 30 min before acetic acid; for Writhing syndrome (number within 20 minutes): control 52.1 ± 2.7; for Inhibitory per cent (writhing): vs control
Procedure: dd Male mice weighing 18 to 22g, one group consisting of 10 animals, were given the intraperitoneal injection of 0.6% acetic acid in a dose of 0.1ml/10g-body weight. The number of writhing syndromes occurring within 20 minutes after injection was observed. Animals were orally given the test compounds suspended in 0.2% carboxymethylcellulose solution 30 minutes before the injection of acetic acid in a dose of 100mg/kg-body weight. Inhibitory percent was estimated in comparison with a control given the 0.2% carboxymethycellulose solution only. Aminopyrine was used as active placebo.

[5] = test system: pain threshold in mice; assay: Analgetic effect, Pressure Test (pain threshold, tail pressure); type: in vivo, dd Male mice; conditions: 100 mg/kg oral; for Pain threshold, Mean ± SE, 30 min / Pain threshold, Mean ± SE, 60 min / Pain threshold, Mean ± SE, 90 min / Pain threshold, Mean ± SE, 120 min: *p <0.05, **p <0.01, ***p <0.001
Procedure: dd Male mice weighing 18 to 22 g (pain threshold ranging within 30 to 50 mmHg), one group consisting of 10 animals, were given orally the test compounds suspended in 0.2% carboxymethylcellulose solution in a dose of 100mg/kg-body weight. Pain threshold were measured at 30, 60, 90 and 120 minutes after the administration of the test compounds while pain reaction occurring by application of pressure on tails of animals was referred to as indication. Aminopyrine was used as active placebo.

[6] = test system: mice; assay: Muscular relaxing effect, Corneal Reflex Test (C.r), oral, mice; type: in vivo, dd Male mice; conditions: Mus musculus; Table 1; oral; mice; maximum response 15-180 min; Litchfield Wilcoxon
Procedure: as §1
Corneal reflex was observed by using mandolin wire for 1/4 injection syringe.

[7] = test system: mice; assay: Muscular relaxing effect, Rotarod Method (R.R), oral, mice; type: in vivo, dd Male mice; conditions: Mus musculus; Table 1; oral; mice; maximum response 15-180 min; Litchfield Wilcoxon
Procedure: as §1
Mice were placed on Rotar Load (made by Natsume Seisakusho Co., Ltd.) having a diameter of 3 cm rotating at a speed of 10 rpm and falling (occurring within 3 minutes) was observed.

[8] = test system: mice; assay: Muscular relaxing effect, Inclined Plane Test (I.P), oral, mice; type: in vivo, dd Male mice; conditions: Mus musculus; Table 1; oral; mice; maximum response 15-180 min; Litchfield Wilcoxon
Procedure: as §1
Mice were placed on veneer inclined at an angle of 30° and on wire-netting inclined at an angle of 60° of which one division is 5 mm square, and mice sliding down were observed as positive, in comparison with normal behavior.

[9] = test system: mice; assay: Muscular relaxing effect, Pinna Reflex Test (P.r), oral, mice; type: in vivo, dd Male mice; conditions: Mus musculus; Table 1; oral; mice; maximum response 15-180 min; Litchfield Wilcoxon
Procedure: as §1
Pinna reflex was observed by using mandolin wire for 1/4 injection syringe.

| SMILES | ED50 [1] | ED50 [2] | Inhibitory per cent, carrageenan-induced edema, 3 hrs. [3] | Inhibitory per cent, carrageenan-induced edema, 6 hrs. [3] | Writhing syndrome (number within 20 minutes) [4] | Inhibitory per cent (writhing) [4] | Pain threshold Increase Ratio [5] | Pain threshold, Mean ± SE, 30 min [5] | Pain threshold, Mean ± SE, 60 min [5] | Pain threshold, Mean ± SE, 90 min [5] | Pain threshold, Mean ± SE, 120 min [5] | ED50 [6] | ED50 [7] | ED50 [8] | ED50 [9] |
| --- | --- | --- | --- | --- | --- | --- | --- | --- | --- | --- | --- | --- | --- | --- | --- |
| O=C1NCC(Cc2ccc(Cl)cc2)O1 (stereo not drawn) [Compound V, 5-(p-chlorobenzyl)-2-oxazolidone] | 750 mg/kg | 380 mg/kg | 30.6 per cent | 22.8 per cent | 45.5 ± 5.3 | 12.8 per cent | 1.15 | 54.6 ± 4.9 mmHg | 51.3 ± 4.3 mmHg | 48.8 ± 2.7 mmHg | 48.2 ± 1.7 mmHg | 750 mg/kg | 240 mg/kg | 520 mg/kg | 530 mg/kg |
| CN1CC(Cc2ccccc2)OC1=O (stereo not drawn) [II, 5-benzyl-3-methyl-2-oxazolidone] | 810 mg/kg | 500 mg/kg | 33.3 per cent | 19.7 per cent | 45.9 ± 4.8 | 11.9 per cent | 1.36 | 49.1 ± 4.5 mmHg | 49.2 ± 3.3 mmHg | 43.5 ± 4.7 mmHg | 36.3 ± 3.9 mmHg | 1100 mg/kg | 340 mg/kg | 500 mg/kg | 520 mg/kg |
| COc1ccccc1CC1CNC(=O)O1 (stereo not drawn) [III, 5-(o-methoxybenzyl)-2-oxazolidone] | 500 mg/kg | 350 mg/kg | 32.7 per cent | 23.3 per cent | 39.1 ± 6.4 | 24.9 per cent | 1.20 | 43.7 ± 4.9 mmHg | 46.5 ± 4.2 mmHg | 42.9 ± 3.1 mmHg | 39.2 ± 3.6 mmHg | 500 mg/kg | 175 mg/kg | 380 mg/kg | 380 mg/kg |
| O=C1NCC(Cc2ccccc2Cl)O1 (stereo not drawn) [IV, 5-(o-chlorobenzyl)-2-oxazolidone] | 660 mg/kg | 390 mg/kg | 16.8 per cent | 15.9 per cent | 12.8 ± 3.6 | 75.4 per cent | 1.89 | 69.8 ± 4.5 mmHg | 56.7 ± 5.3 mmHg | 53.3 ± 5.5 mmHg | 51.8 ± 6.2 mmHg | 560 mg/kg | 210 mg/kg | 330 mg/kg | < 500 mg/kg |
